Experimental findings from ChEMBL document CHEMBL4184182, “Studies on interactions of carbazole derivatives with DNA, cell image, and cytotoxicity” (Bioorg Med Chem, 2018) are described below.

Some results are limits rather than exact numbers.

Data set [1] concerns Quadruplex DNA. Briefly: Binding affinity to human telomeric G-quadruplex DNA assessed as enhanced fluorescence ratio at 5 uM after 5 mins in presence of potassium ion by fluorescence titration assay relative to control. The class given is nucleic-acid assay.
The subject of data set [2] is dsDNA. Kind of data set: Binding affinity to 26-mer duplex DNA (unknown origin) assessed as enhanced fluorescence ratio at 5 uM after 5 mins in presence of sodium ion by fluorescence titration assay relative to control. Format: nucleic-acid assay.
A short description of data set [3]: Drug uptake in fixed human HepG2 cell nucleus at 10 uM after 2.5 hrs by confocal microscopic method. The class given is ADME, subcellular. Conditions: hepg2, 2.5 h; call rule not given here.
Data set [4] deals with Quadruplex DNA. Kind of data set: Binding affinity to c-Kit G-quadruplex DNA (unknown origin) assessed as hyperchromicity at 15 uM after 5 mins by UV-Visible absorbance titration method. Format: nucleic-acid assay.
A short description of data set [5]: Drug uptake in RNase-A treated human HepG2 cell nucleus at 10 uM after 2.5 hrs by confocal microscopic method. Conditions: hepg2, 2.5 h. Format: ADME, subcellular.
In data set [6] the test system is Quadruplex DNA. Kind of data set: Binding affinity to c-Myc G-quadruplex DNA (unknown origin) assessed as absorption maximum at 5 uM after 5 mins by fluorescence titration method (reference value: 405 nanometer). Format: nucleic-acid assay.
Data set [7] relates to Calf thymus DNA. Briefly: Binding affinity to calf thymus DNA assessed as red shift at 15 uM after 5 mins by UV-Visible absorbance titration method. The class given is nucleic-acid assay. Conditions: Bos taurus.
The subject of data set [8] is Quadruplex DNA. Kind of data set: Binding affinity to human telomeric G-quadruplex DNA assessed as compound fluorescence life time at 5 uM after 5 mins in presence of sodium ion by fluorescence titration method (reference value: 3.626 nanoseconds). The class given is nucleic-acid assay.
The test system of data set [9] is Quadruplex DNA. Kind of data set: Binding affinity to c-Kit G-quadruplex DNA (unknown origin) assessed as emission maximum at 5 uM after 5 mins by fluorescence titration method (reference value: 559 nanometer). Format: nucleic-acid assay.
Data set [10] has as its system dsDNA. Briefly: Binding affinity to 26-mer duplex DNA (unknown origin) assessed as emission maximum at 5 uM after 5 mins by fluorescence titration method (reference value: 559 nanometer). Format: nucleic-acid assay.
The test system of data set [11] is Quadruplex DNA. Briefly: Binding affinity to human telomeric G-quadruplex DNA assessed as absorption maximum at 5 uM after 5 mins in presence of sodium ion by fluorescence titration method (reference value: 405 nanometer). The class given is nucleic-acid assay.
Data set [12] has as its system Quadruplex DNA. Briefly: Binding affinity to c-Kit G-quadruplex DNA (unknown origin) assessed as enhanced fluorescence ratio at 5 uM after 5 mins by fluorescence titration assay relative to control. Format: nucleic-acid assay.
In data set [13] the test system is Quadruplex DNA. Briefly: Binding affinity to c-Myc G-quadruplex DNA (unknown origin) assessed as hyperchromicity at 15 uM after 5 mins by UV-Visible absorbance titration method. The class given is nucleic-acid assay.
Data set [14] relates to Quadruplex DNA. Kind of data set: Binding affinity to Bcl2 G-quadruplex DNA (unknown origin) assessed as absorption maximum at 5 uM after 5 mins by fluorescence titration method (reference value: 405 nanometer). Format: nucleic-acid assay.
Data set [15] has as its system Calf thymus DNA. Kind of data set: Binding affinity to calf thymus DNA assessed as absorption maximum at 5 uM after 5 mins by fluorescence titration method (reference value: 405 nanometer). The class given is nucleic-acid assay. The conditions noted are these: Bos taurus.
For data set [16], the system named is Quadruplex DNA. Kind of data set: Binding affinity to human telomeric G-quadruplex DNA assessed as red shift at 15 uM after 5 mins in presence of potassium ion by UV-Visible absorbance titration method. Format: nucleic-acid assay.
The test system of data set [17] is dsDNA. Kind of data set: Binding affinity to 26-mer duplex DNA (unknown origin) assessed as absorption maximum at 5 uM after 5 mins by fluorescence titration method (reference value: 405 nanometer). The class given is nucleic-acid assay.
Data set [18] concerns Quadruplex DNA. Kind of data set: Binding affinity to Bcl2 G-quadruplex DNA (unknown origin) assessed as compound fluorescence life time at 5 uM after 5 mins by fluorescence titration method (reference value: 3.626 nanoseconds). Format: nucleic-acid assay.
Data set [19] has as its system Quadruplex DNA. Kind of data set: Binding affinity to human telomeric G-quadruplex DNA assessed as enhanced fluorescence ratio at 5 uM after 5 mins in presence of sodium ion by fluorescence titration assay relative to control. Format: nucleic-acid assay.
Data set [20] has as its system Quadruplex DNA. Briefly: Binding affinity to human telomeric G-quadruplex DNA assessed as compound fluorescence life time at 5 uM after 5 mins in presence of potassium ion by fluorescence titration method (reference value: 3.626 nanoseconds). The class given is nucleic-acid assay.
The nature of data set [21]: Drug uptake in human HepG2 cell cytoplasm at 10 uM after 2.5 hrs by confocal microscopic method. The conditions noted are these: hepg2, 2.5 h. The class given is ADME, subcellular.
The test system of data set [22] is Quadruplex DNA. Briefly: Binding affinity to human telomeric G-quadruplex DNA assessed as emission maximum at 5 uM after 5 mins in presence of potassium ion by fluorescence titration method (reference value: 559 nanometer). Format: nucleic-acid assay.
Data set [23] concerns Quadruplex DNA. Briefly: Binding affinity to c-Kit G-quadruplex DNA (unknown origin) assessed as absorption maximum at 5 uM after 5 mins by fluorescence titration method (reference value: 405 nanometer). The class given is nucleic-acid assay.
Data set [24] has as its system Quadruplex DNA. Kind of data set: Binding affinity to human telomeric G-quadruplex DNA assessed as emission maximum at 5 uM after 5 mins in presence of sodium ion by fluorescence titration method (reference value: 559 nanometer). The class given is nucleic-acid assay.
Data set [25] relates to Quadruplex DNA. Briefly: Binding affinity to human telomeric G-quadruplex DNA assessed as red shift at 10 uM after 5 mins in presence of potassium ion by UV-Visible absorbance titration method. Format: nucleic-acid assay.
Data set [26] deals with Quadruplex DNA. Briefly: Binding affinity to c-Kit G-quadruplex DNA (unknown origin) assessed as emission maximum at 5 uM after 5 mins by fluorescence titration method (reference value: 584 nanometer). The class given is nucleic-acid assay.
Data set [27] relates to Quadruplex DNA. Briefly: Binding affinity to human telomeric G-quadruplex DNA assessed as compound fluorescence life time at 5 uM after 5 mins in presence of sodium ion by fluorescence titration method (reference value: 0.192 nanoseconds). Format: nucleic-acid assay.
Data set [28] in a line: Drug uptake in DNase-1 treated human HepG2 cell nucleus at 3 uM after 30 mins by H33258.staining based confocal microscopic method. The class given is ADME, subcellular. Conditions: hepg2, 0.5 h.
Data set [29] has as its system Quadruplex DNA. Kind of data set: Binding affinity to c-Myc G-quadruplex DNA (unknown origin) assessed as red shift at 10 uM after 5 mins by UV-Visible absorbance titration method. The class given is nucleic-acid assay.
Data set [30] relates to Calf thymus DNA. Briefly: Binding affinity to calf thymus DNA assessed as red shift at 10 uM after 5 mins by UV-Visible absorbance titration method. Format: nucleic-acid assay. The conditions noted are these: Bos taurus.
The nature of data set [31]: Drug uptake in human HepG2 cell nucleus at 3 uM after 30 mins by H33258.staining based confocal microscopic method. Format: ADME, subcellular. Conditions: hepg2, 0.5 h.
Data set [32] concerns Quadruplex DNA. Briefly: Binding affinity to c-Myc G-quadruplex DNA (unknown origin) assessed as emission maximum at 5 uM after 5 mins by fluorescence titration method (reference value: 584 nanometer). The class given is nucleic-acid assay.
Data set [33] deals with dsDNA. Kind of data set: Binding affinity to 26-mer duplex DNA (unknown origin) assessed as red shift at 10 uM after 5 mins by UV-Visible absorbance titration method. The class given is nucleic-acid assay.
Data set [34] relates to dsDNA. Kind of data set: Binding affinity to 26-mer duplex DNA (unknown origin) assessed as compound fluorescence life time at 5 uM after 5 mins by fluorescence titration method (reference value: 0.192 nanoseconds). The class given is nucleic-acid assay.
In data set [35] the test system is Quadruplex DNA. Briefly: Binding affinity to c-Myc G-quadruplex DNA (unknown origin) assessed as absorption maximum at 5 uM after 5 mins by fluorescence titration method (reference value: 453 nanometer). The class given is nucleic-acid assay.
The subject of data set [36] is dsDNA. Kind of data set: Binding affinity to 26-mer duplex DNA (unknown origin) assessed as hyperchromicity at 10 uM after 5 mins by UV-Visible absorbance titration method. The class given is nucleic-acid assay.
For data set [37], the system named is Quadruplex DNA. Briefly: Binding affinity to c-Myc G-quadruplex DNA (unknown origin) assessed as compound fluorescence life time at 5 uM after 5 mins by fluorescence titration method (reference value: 0.192 nanoseconds). The class given is nucleic-acid assay.
Data set [38] deals with Quadruplex DNA. Kind of data set: Binding affinity to human telomeric G-quadruplex DNA assessed as absorption maximum at 5 uM after 5 mins in presence of sodium ion by fluorescence titration method (reference value: 453 nanometer). The class given is nucleic-acid assay.

`CCn1c2ccccc2c2cc(/C=C(\C#N)c3ccc[n+](C)c3)ccc21.[I-]`: the Ratio in the data set on Quadruplex DNA [1], with dsDNA [2], in the data set on Quadruplex DNA [12] and with Quadruplex DNA [19] was greater than 6 throughout. Moreover, the Drug uptake result in data set [3], in [5] and in data set [21] was “Active” in each case. The Activity was 39.9% in the data set with Quadruplex DNA [4]; 430 nm in the data set on Quadruplex DNA [6]; 23 nm with Calf thymus DNA [7]; 550 nm in the data set on Quadruplex DNA [9]; 541 nm with dsDNA [10]; 422 nm in the data set with Quadruplex DNA [11]. In addition, the Activity in the data set on Quadruplex DNA [13] was found to be 41.7%; in the data set on Quadruplex DNA [14] it was 434 nm; in the data set with Calf thymus DNA [15], 428 nm; with Quadruplex DNA [16], 23 nm; in the data set on dsDNA [17], 422 nm; with Quadruplex DNA [22], 545 nm. In addition, the Activity in the data set on Quadruplex DNA [23] is 432 nm; with Quadruplex DNA [24], 545 nm. In addition, the results for the Time in the data set with Quadruplex DNA [8], in the data set with Quadruplex DNA [18] and in the data set on Quadruplex DNA [20] were 7.25 nanoseconds, 6.55 nanoseconds and 6.35 nanoseconds, respectively.

`CCn1c2ccccc2c2cc(/C=C/c3sc4ccccc4[n+]3CC)ccc21.[I-]`: the Activity in the data set with Quadruplex DNA [25] stood at 21 nm; in the data set with Quadruplex DNA [26], 588 nm; in the data set with Quadruplex DNA [29], 53 nm; in the data set with Calf thymus DNA [30], 24 nm; with Quadruplex DNA [32] it was 581 nm; in the data set with dsDNA [33] it was 17 nm. Also, the figures for the Activity in the data set with Quadruplex DNA [35], in the data set with dsDNA [36] and with Quadruplex DNA [38] were 506 nm, 24.6% and 477 nm, respectively. Also, the Time with Quadruplex DNA [27] is 2.15 nanoseconds; in the data set on dsDNA [34], 2.69 nanoseconds; in the data set on Quadruplex DNA [37], 1.68 nanoseconds. The Drug uptake result in data set [28] is listed as “Not Active”; in data set [31], “Active”.
